We go through 1 molecule from patent US20240197759A1, “IMMUNE STIMULATING NANOPARTICLE COMPOSITION” (DANMARKS TEKNISKE UNIVERSITET, priority 2021, published 2024).

The assay concerns CT26 syngenic subcutaneous colon cancer model. Kind of assay: Antitumor activity of MBS8 micelles in combination with doxorubicin or doxil in the CT26 model. It is filed as in vivo, mice. As to conditions: mono chemotherapy 4 mg/kg i.v. q4d x3. The protocol: Randomisation of mice and treatment started when tumors reached an average volume of 100 mm^3 (Day 0). […] All drugs were administered by intravenous bolus. Doxorubicin or doxil were given q4d, total of 3 injections. […] Growth of tumors was measured twice a week.

Structures are written as SMILES.

Regarding `COc1cccc2c1C(=O)c1c(O)c3c(c(O)c1C2=O)C[C@@](O)(C(=O)CO)C[C@@H]3O[C@H]1C[C@H](N)[C@H](O)[C@H](C)O1` [doxorubicin], the complete responders entry is “no complete responders”.
